Read-outs that look alike come from different tables or passages of the source.

For one data set, the system named is C. tropicalis ATCC 750. Description: Antifungal MIC assay (broth microdilution in YNB). Conditions: Candida tropicalis, ATCC750. The format is cell-based, Candida tropicalis. From the text:
(§1) Yeast strains: Candida albicans (ATCC 90028, NCCLS 11), Cryptococcus neoformans (ATCC 208821, H99 type strain), Candida tropicalis (ATCC 750, type strain), Candida glabrata (ATCC 90030, NCCLS 84) and Cryptococcus deuterogattii (ATCC 32609, type strain) were obtained from the American Type Culture Collection (ATCC). Cryptococcus deuterogattii (CBS 7750), Candida auris (CBS 10913) and Candida auris (CBS 12373) were obtained from the CBS‐KNAW culture collection. The strains were maintained on glycerol/YPD (yeast extract‐peptone dextrose) broth (20:80 v/v) at −80 °C.
(§2) Antifungal minimum inhibitory concentration (MIC) assay: The cobalt complexes and antifungal control compounds were serially diluted in 50 μL of Yeast Nitrogen Broth (YNB; BD, Cat No. 233520 supplemented with 2 % glucose and 10 mM ammonium sulfate) two‐fold across the wells of non‐binding surface (NBS) 96‐well plates (Corning; Cat. No. 3641). Plates were set up in quadruplicate for each strain tested, and two biological replicates were conducted on separate assay days.
(§3) Yeast strains were cultured from glycerol onto YPD (Becton Dickinson 242720) agar at 30 °C for 72 h. For each strain, a minimum of five single colonies were taken from the agar plate and dissolved in sterile water and adjusted to form a yeast suspension of 1×10^6 to 5×10^6 CFU mL^−1 (as determined by OD530). The suspension was subsequently diluted into YNB media, and added to each well of the compound containing plates, giving a final cell density of 2.5×10^3 CFU mL^−1 and a total volume of 100 μL. Plates were covered and incubated at 35 °C for 36 h without shaking.
(§4) Growth inhibition of all strains was determined visually where the MIC was recorded as the lowest compound concentration with no visible growth. Fluconazole (Sigma F8929), ketoconazole (Sigma K1003) and micafungin (Sigma SML2288) were used as internal positive inhibitor controls for every strain tested.
Background: Broth dilution looks for growth in wells or tubes with falling amounts of substance.

The subject of data set [1] is C. deuterogattii CBS 7750. In words: Antifungal MIC assay (broth microdilution in YNB). It is filed as cell-based, Cryptococcus deuterogattii. Conditions: Cryptococcus deuterogattii, CBS7750.
From the text: as §1, §2, §3, §4

Data set [2] relates to C. deuterogattii ATCC 32609. Description: Antifungal MIC assay (broth microdilution in YNB). The format is cell-based, Cryptococcus deuterogattii. The conditions noted are these: Cryptococcus deuterogattii, ATCC32609.
From the text: as §1, §2, §3, §4

Data set [3] concerns Klebsiella pneumoniae ATCC 700603 (K6; ESBL SHV-18). It is filed as cell-based. Conditions: 18 h. The protocol: (§5) CO-ADD High Throughput Screening
(§6) Bacterial broth microdilution minimum inhibitory concentration (MIC) assay Bacterial strains were cultured in Cation-adjusted Mueller Hinton broth (CAMHB; Bacto Laboratories 212322) at 37 °C overnight. A sample of each culture was then diluted 40-fold in fresh CAMHB and incubated at 37 °C for 1.5-3 h. The resultant mid-log phase cultures were diluted with CAMHB (CFU/mL measured by OD600), then added to each well of the compound-containing plates (384-well non-binding surface (NBS) plates; Corning CLS3640), giving a cell density of 5 × 10^5 CFU/mL and a total volume of 50 µL. Plates were covered and incubated at 37 °C for 18 h without shaking. Inhibition of bacterial growth was determined measuring absorbance at 600 nm (OD600), using media only as negative control and bacteria without inhibitors as positive control. MIC values were determined as the lowest concentration at which the growth was inhibited at ≥ 80%. Colistin sulfate (Sigma C4461) and vancomycin HCl (Sigma 861987) were used as positive inhibitor controls on each plate for Gram-negative and Gram-positive bacteria, respectively.
(§7) Figure S1. 1H NMR (400 MHz) of [Co(ATS)(DMAP)2]NO3 (3) in DMSO-d6.
(§8) (1 picture or pasted object on this page, not shown here)

In a further data set the test system is human red blood cells. In words: Haemolysis assay. It is filed as cell-based. Conditions: 1 h at 37 °C. The procedure:
Haemolysis assay: Human whole blood (Australian Red Cross Blood Service) was washed three times with three volumes of 0.9 % NaCl and resuspended in a concentration of 0.5×10^8 cells mL^−1, determined by manual cell count in a Neubauer haemocytometer. Washed cells were added to compound containing plates (384‐well round bottom polypropylene plates, Corning 3657) for a final volume of 50 μL, shaken for 10 min and incubated for 1 h at 37 °C, without shaking. After incubation, the plates were centrifuged at 1000 g for 10 min to pellet cells and debris, 25 μL of the supernatant was then transferred to reading plates (384‐well flat bottom polystyrene plates, Corning CLS3680), with haemolysis determined by measuring the supernatant absorbance at […] (OD405), using cells without inhibitors as negative control and cells with 1 % Triton X‐100 (Sigma T8787) as positive control. HC10 and HC50 (concentration at which 10 and 50 % haemolysis is induced, respectively) were calculated by curve fitting the inhibition values vs. log(concentration) of four replicates using a sigmoidal dose–response function with variable fitting values for top, bottom and slope using Prism 8. Melittin (Sigma M2272) was used as positive haemolytic control on each plate. Human ethics approval from the University of Queensland Institutional Human Research Ethics Committee was obtained for use of human blood for haemolysis studies (approval number 201400003).

In data set [4] the test system is Acinetobacter baumannii ATCC 19606. In words: CO-ADD bacterial broth microdilution MIC assay. The format is cell-based. The conditions noted are these: Acinetobacter baumannii, ATCC19606; CAMHB, 37 °C, 18 h, ≥ 80% inhibition; read-out: MIC Ab (Acinetobacter baumannii ATCC 19606). The procedure: as §5, §6, §7, §8
For data set [5], the system named is Escherichia coli ATCC 25922. In words: CO-ADD bacterial broth microdilution MIC assay. The format is cell-based. Conditions: Escherichia coli, ATCC25922; CAMHB, 37 °C, 18 h, ≥ 80% inhibition; read-out: MIC Ec (Escherichia coli ATCC 25922). The protocol: as §5, §6, §7, §8
The subject of data set [6] is Pseudomonas aeruginosa ATCC 27853. Description: CO-ADD bacterial broth microdilution MIC assay. The format is cell-based. The conditions noted are these: Pseudomonas aeruginosa, ATCC27853; CAMHB, 37 °C, 18 h, ≥ 80% inhibition; read-out: MIC Pa (Pseudomonas aeruginosa ATCC 27853). The procedure:
as §5, §6, §7, §8

Data set [7] concerns Staphylococcus aureus ATCC 43300 (MRSA). Description: CO-ADD bacterial broth microdilution MIC assay. It is filed as cell-based. The conditions noted are these: Staphylococcus aureus; CAMHB, 37 °C, 18 h, ≥ 80% inhibition; read-out: MIC Sa (Staphylococcus aureus ATCC 43300, MRSA). The procedure: as §5, §6, §7, §8
The next data set relates to C. albicans ATCC 90028. In words: Antifungal MIC assay (broth microdilution in YNB). Conditions: Candida albicans, ATCC90028. It is filed as cell-based, Candida albicans.
From the text: as §1, §2, §3, §4

The mark [8] stands for this setting: Table S1, read-out: MIC Candida tropicalis ATCC 750.
Setting [9] is: range of MICs, n=8, 35 °C, 36 h, visual, read-out: MIC C. tropicalis ATCC 750.
The mark [10] stands for this setting: Table S1, read-out: MIC Cryptococcus deuterogattii CBS 7750.
The mark [11] stands for this setting: range of MICs, n=8, 35 °C, 36 h, visual, read-out: MIC C. deuterogattii CBS 7750.
The mark [12] stands for this setting: Table S1, read-out: MIC Cryptococcus deuterogattii ATCC 32609.
Where [13] appears, read: range of MICs, n=8, 35 °C, 36 h, visual, read-out: MIC C. deuterogattii ATCC 32609.
[14] abbreviates: Table S1, read-out: MIC Candida albicans ATCC 90028.
The mark [15] stands for this setting: range of MICs, n=8, 35 °C, 36 h, visual, read-out: MIC C. albicans ATCC 90028.

For the compound `CC(=N\NC(N)=S)/C(C)=N/NC(N)=S` [Compound L1], the minimal inhibitory concentration (MIC) was > 23.2 µg/mL in the data set with C. tropicalis ATCC 750 (setting [8]); > 100 µM in the data set with C. tropicalis ATCC 750 (setting [9]); > 23.2 µg/mL in data set [1] (setting [10]); > 100 µM in [1] (setting [11]); > 23.2 µg/mL in data set [2] (setting [12]); > 100 µM in data set [2] (setting [13]). Moreover, the minimal inhibitory concentration (MIC) in data set [4] was > 32 µg/mL; in data set [5], > 32 µg/mL; in data set [6], > 32 µg/mL; in [7], > 32 µg/mL; in the data set on C. albicans ATCC 90028 (setting [14]) it was > 23.2 µg/mL; with C. albicans ATCC 90028 (setting [15]) it was > 100 µM. Moreover, in data set [3], the “MIC Kp (Klebsiella pneumoniae ATCC 700603)” value (“MIC Kp” below) is > 32 µg/mL. Besides, the “Haem HC10 (concentration at which 10 % haemolysis is reached)” value with human red blood cells is >100 µM.
In the case of `CC(/C=C(\O)C(F)(F)F)=N\CC/N=C(C)/C=C(\O)C(F)(F)F` [Compound L2], the MIC with C. tropicalis ATCC 750 (setting [8]) is > 33.2 µg/mL; in the data set with C. tropicalis ATCC 750 (setting [9]) it was > 100 µM; in data set [1] (setting [10]), > 33.2 µg/mL; in data set [1] (setting [11]), > 100 µM; in [2] (setting [12]), > 33.2 µg/mL; in data set [2] (setting [13]) it was > 100 µM. The minimum inhibitory concentration (MIC) in [4] is > 32 µg/mL; in data set [5] it was > 32 µg/mL; in data set [6] it was > 32 µg/mL; in [7], > 32 µg/mL; in the data set with C. albicans ATCC 90028 (setting [14]), > 33.2 µg/mL; in the data set with C. albicans ATCC 90028 (setting [15]) it was > 100 µM. Further, the “MIC Kp” value in [3] is recorded as > 32 µg/mL. Further, the “Haem HC10 (concentration at which 10 % haemolysis is reached)” value in the data set with human red blood cells was >100 µM.
With `Oc1c(F)cccc1/C=N/CC/N=C/c1cccc(F)c1O` [Compound L3], the minimum inhibitory concentration (MIC) with C. tropicalis ATCC 750 (setting [8]) was > 30.4 µg/mL; with C. tropicalis ATCC 750 (setting [9]), > 100 µM; in [1] (setting [10]) it was > 30.4 µg/mL; in data set [1] (setting [11]), > 100 µM; in data set [2] (setting [12]), > 30.4 µg/mL; in data set [2] (setting [13]) it was 100 µM. The MIC in data set [4] was > 32 µg/mL; in [5] it was > 32 µg/mL; in [6] it was > 32 µg/mL; in [7], > 32 µg/mL; with C. albicans ATCC 90028 (setting [14]), > 30.4 µg/mL; in the data set on C. albicans ATCC 90028 (setting [15]), > 100 µM. Moreover, in data set [3], the “MIC Kp” value is > 32 µg/mL. The “Haem HC10 (concentration at which 10 % haemolysis is reached)” value in the data set with human red blood cells was >100 µM.

What is called MIC is the lowest concentration found to suppress growth.

The values above are taken from paper PMC7855930, “Nontoxic Cobalt(III) Schiff Base Complexes with Broad‐Spectrum Antifungal Activity” (Chemistry (Weinheim an Der Bergstrasse, Germany), 2020).
